# From PubChem BioAssay (NCI)
#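 The compound was tested at five concentrations on cells cultured in 96-well plates, with a 48-hour exposure period. TGI: total growth inhibition.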
# What was measured:
# Test in all cases: NCI tumour cell line growth inhibition, 48 h
# 786-0 renal = test system: 786-0 renal
# A498 renal = test system: A498 renal
# A549 NSCLC = test system: A549 NSCLC
# ACHN renal = test system: ACHN renal
# CCRF-CEM leukemia = test system: CCRF-CEM leukemia
# COLO 205 colon = test system: COLO 205 colon
# DLD-1 colon = test system: DLD-1 colon
# DMS 114 small cell lung = test system: DMS 114 small cell lung
# DMS 273 small cell lung = test system: DMS 273 small cell lung
# EKVX NSCLC = test system: EKVX NSCLC
# HCC-2998 colon = test system: HCC-2998 colon
# HCT-116 colon = test system: HCT-116 colon
# HCT-15 colon = test system: HCT-15 colon
# HOP-18 NSCLC = test system: HOP-18 NSCLC
# HOP-62 NSCLC = test system: HOP-62 NSCLC
# HOP-92 NSCLC = test system: HOP-92 NSCLC
# HT29 colon = test system: HT29 colon
# IGROV1 ovarian = test system: IGROV1 ovarian
# K-562 leukemia = test system: K-562 leukemia
# KM20L2 colon = test system: KM20L2 colon
# LOX IMVI melanoma = test system: LOX IMVI melanoma
# LXFL 529 NSCLC = test system: LXFL 529 NSCLC
# M14 melanoma = test system: M14 melanoma
# M19-MEL melanoma = test system: M19-MEL melanoma
# MALME-3M melanoma = test system: MALME-3M melanoma
# MOLT-4 leukemia = test system: MOLT-4 leukemia
# NCI-H226 lung = test system: NCI-H226 lung
# NCI-H23 lung = test system: NCI-H23 lung
# NCI-H460 lung = test system: NCI-H460 lung
# OVCAR-3 ovarian = test system: OVCAR-3 ovarian
# OVCAR-4 ovarian = test system: OVCAR-4 ovarian
# OVCAR-5 ovarian = test system: OVCAR-5 ovarian
# OVCAR-8 ovarian = test system: OVCAR-8 ovarian
# RPMI-8226 leukemia = test system: RPMI-8226 leukemia
# RXF 393 renal = test system: RXF 393 renal
# RXF-631 renal = test system: RXF-631 renal
# SF-295 CNS = test system: SF-295 CNS
# SF-539 CNS = test system: SF-539 CNS
# SK-MEL-28 melanoma = test system: SK-MEL-28 melanoma
# SK-MEL-5 melanoma = test system: SK-MEL-5 melanoma
# SK-OV-3 ovarian = test system: SK-OV-3 ovarian
# SN12C renal = test system: SN12C renal
# SNB-75 CNS = test system: SNB-75 CNS
# SNB-78 CNS = test system: SNB-78 CNS
# SR leukemia = test system: SR leukemia
# TK-10 renal = test system: TK-10 renal
# U251 CNS = test system: U251 CNS
# UACC-257 melanoma = test system: UACC-257 melanoma
# UACC-62 melanoma = test system: UACC-62 melanoma
# UO-31 renal = test system: UO-31 renal
# XF 498 CNS = test system: XF 498 CNS
# CAKI-1 renal = test system: CAKI-1 renal
# HL-60(TB) leukemia = test system: HL-60(TB) leukemia
# KM12 colon = test system: KM12 colon
# NCI-H522 lung = test system: NCI-H522 lung
# SF-268 CNS = test system: SF-268 CNS
# SK-MEL-2 melanoma = test system: SK-MEL-2 melanoma
# SNB-19 CNS = test system: SNB-19 CNS
# SW-620 colon = test system: SW-620 colon
structure (smiles),measurement,setting,value
CN(C)c1ccc(/C=C2\CNC/C(=C\c3ccc(N(C)C)cc3)C2=O)cc1,TGI,786-0 renal,31.6 µM
same,TGI,A498 renal,39.5 µM
same,TGI,A549 NSCLC,56.5 µM
same,TGI,ACHN renal,54 µM
same,TGI,CCRF-CEM leukemia,> 100 µM
same,TGI,COLO 205 colon,> 100 µM
same,TGI,DLD-1 colon,46.2 µM
same,TGI,DMS 114 small cell lung,34.7 µM
same,TGI,DMS 273 small cell lung,27.6 µM
same,TGI,EKVX NSCLC,> 100 µM
same,TGI,HCC-2998 colon,> 100 µM
same,TGI,HCT-116 colon,35.1 µM
same,TGI,HCT-15 colon,15.5 µM
same,TGI,HOP-18 NSCLC,36.8 µM
same,TGI,HOP-62 NSCLC,> 100 µM
same,TGI,HOP-92 NSCLC,55.2 µM
same,TGI,HT29 colon,24.1 µM
same,TGI,IGROV1 ovarian,97.1 µM
same,TGI,K-562 leukemia,> 100 µM
same,TGI,KM20L2 colon,> 100 µM
same,TGI,LOX IMVI melanoma,37 µM
same,TGI,LXFL 529 NSCLC,98.2 µM
same,TGI,M14 melanoma,> 100 µM
same,TGI,M19-MEL melanoma,46.8 µM
same,TGI,MALME-3M melanoma,> 100 µM
same,TGI,MOLT-4 leukemia,> 100 µM
same,TGI,NCI-H226 lung,> 100 µM
same,TGI,NCI-H23 lung,> 100 µM
same,TGI,NCI-H460 lung,29.4 µM
same,TGI,OVCAR-3 ovarian,> 100 µM
same,TGI,OVCAR-4 ovarian,29.7 µM
same,TGI,OVCAR-5 ovarian,> 100 µM
same,TGI,OVCAR-8 ovarian,43.7 µM
same,TGI,RPMI-8226 leukemia,> 100 µM
same,TGI,RXF 393 renal,44 µM
same,TGI,RXF-631 renal,60.7 µM
same,TGI,SF-295 CNS,> 100 µM
same,TGI,SF-539 CNS,> 100 µM
same,TGI,SK-MEL-28 melanoma,42 µM
same,TGI,SK-MEL-5 melanoma,> 100 µM
same,TGI,SK-OV-3 ovarian,> 100 µM
same,TGI,SN12C renal,75.4 µM
same,TGI,SNB-75 CNS,27.2 µM
same,TGI,SNB-78 CNS,> 100 µM
same,TGI,SR leukemia,82.8 µM
same,TGI,TK-10 renal,> 100 µM
same,TGI,U251 CNS,28.7 µM
same,TGI,UACC-257 melanoma,> 100 µM
same,TGI,UACC-62 melanoma,> 100 µM
same,TGI,UO-31 renal,> 100 µM
same,TGI,XF 498 CNS,48.6 µM
NC(=O)c1csc(C2C=CC(CO)O2)n1 (centres undefined),TGI,786-0 renal,> 100 µM
same,TGI,A498 renal,> 100 µM
same,TGI,A549 NSCLC,> 100 µM
same,TGI,ACHN renal,> 100 µM
same,TGI,CAKI-1 renal,> 100 µM
same,TGI,CCRF-CEM leukemia,> 100 µM
same,TGI,COLO 205 colon,> 100 µM
same,TGI,DMS 114 small cell lung,> 100 µM
same,TGI,DMS 273 small cell lung,> 100 µM
same,TGI,EKVX NSCLC,> 100 µM
same,TGI,HCC-2998 colon,> 100 µM
same,TGI,HCT-116 colon,> 100 µM
same,TGI,HCT-15 colon,> 100 µM
same,TGI,HL-60(TB) leukemia,> 100 µM
same,TGI,HOP-18 NSCLC,> 100 µM
same,TGI,HOP-62 NSCLC,> 100 µM
same,TGI,HOP-92 NSCLC,> 100 µM
same,TGI,HT29 colon,> 100 µM
same,TGI,IGROV1 ovarian,> 100 µM
same,TGI,K-562 leukemia,> 100 µM
same,TGI,KM12 colon,> 10 µM
same,TGI,KM20L2 colon,> 100 µM
same,TGI,LOX IMVI melanoma,> 100 µM
same,TGI,LXFL 529 NSCLC,> 100 µM
same,TGI,M14 melanoma,> 100 µM
same,TGI,MALME-3M melanoma,> 100 µM
same,TGI,MOLT-4 leukemia,> 100 µM
same,TGI,NCI-H226 lung,> 100 µM
same,TGI,NCI-H23 lung,> 100 µM
same,TGI,NCI-H460 lung,> 100 µM
same,TGI,NCI-H522 lung,> 100 µM
same,TGI,OVCAR-3 ovarian,> 10 µM
same,TGI,OVCAR-4 ovarian,> 100 µM
same,TGI,OVCAR-5 ovarian,> 100 µM
same,TGI,OVCAR-8 ovarian,> 100 µM
same,TGI,RPMI-8226 leukemia,> 100 µM
same,TGI,RXF-631 renal,> 100 µM
same,TGI,SF-268 CNS,> 100 µM
same,TGI,SF-295 CNS,> 10 µM
same,TGI,SF-539 CNS,> 100 µM
same,TGI,SK-MEL-2 melanoma,> 100 µM
same,TGI,SK-MEL-28 melanoma,> 100 µM
same,TGI,SK-OV-3 ovarian,> 100 µM
same,TGI,SN12C renal,> 100 µM
same,TGI,SNB-19 CNS,> 100 µM
same,TGI,SNB-78 CNS,> 100 µM
same,TGI,SW-620 colon,> 100 µM
same,TGI,TK-10 renal,> 100 µM
same,TGI,U251 CNS,> 100 µM
same,TGI,UACC-257 melanoma,> 100 µM
same,TGI,UACC-62 melanoma,> 100 µM
same,TGI,UO-31 renal,> 100 µM
same,TGI,XF 498 CNS,> 100 µM
